According to US5444083A, “Pyrrolidine compound and pharmaceutical use” (Eisai Co., Ltd., priority 1989, dated 1995):
Counter-ions that a name gives are not always drawn.

Key:
[1] = target: T1, D1 receptor (striatum of rat) (Rattus norvegicus, UniProt P18901); assay: specific binding of D1 receptors in the striatum of rat; details: displacement of 3H-Sch23390 0.3 nM, rat striatum synaptosome fraction, 37 degree centigrade, 15 minutes
T1 construct: The striatum of rats were excised, homogenized; from tissue; host or cells: rat striatum, synaptosome fraction
Description: (§1) 1. Test on specific binding of D1 and D2 receptors in the striatum of rat
(§2) The striatum of rats were excised, homogenized with a 0.05M Tris Fuffer and then centrifuged at 20,000×g to collect its synaptosome fraction. The sediment was washed several times with a 0.25M Tris Buffer and suspended in a 0.05M Tris Buffer containing 120 mM of Nacl, 5 mM of KCl, 2 mM of CaCls and 1 mM of MgCl2. The suspension was, in portions, placed in the frozen state at minus 80 degree centigrade. ^3 H-Sch23390 having a final concentration of 0.3 nM in the case of D1 and ^3 H-Spiperone having a finish concentration of 0.2 nM in the case of D2 were added to the portions of the suspension, respectively, together with a specimen. The mixtures were incubased at 37 degree centigrade for 15 minutes. Having been filtrated with a Whatman GF/B filter, they were examined with a liquid scintillation counter.

[2] = target: T2, D2 receptor (striatum of rat) (Rattus norvegicus, UniProt P61169); assay: specific binding of D2 receptors in the striatum of rat; details: displacement of 3H-Spiperone 0.2 nM, rat striatum synaptosome fraction, 37 degree centigrade, 15 minutes
T2 construct: The striatum of rats were excised, homogenized; from tissue; host or cells: rat striatum, synaptosome fraction
Description: as §1, §2

anesthetized dogs = assay: Action cardiohemodynamics in anesthetized dogs; assay type: in vivo, Mongrel dogs; details: Canis lupus familiaris, iv, intravenously, read-out: decrease of mean blood pressure; for inhibition in vivo at 0.01 mg/kg: 10 microgram/kg; for inhibition in vivo at 0.003 mg/kg: 3 microgram/kg; for inhibition in vivo at 0.001 mg/kg: 1 microgram/kg
Description: 2. Action cardiohemodynamics in anesthetized dogs
Mongrel dogs of about 10 kg were anesthetized with the intravenous administration of 20 mg/kg of thiopental sodium. They were then treated by introducing oxygen gas, nitrous oxide gas and enflurane in combination through an endotracheal tube inserted thereinto to conduct artificial respiration and with an Acoma artificial respirator ARF-850E (trademark) and an Acoma anesthesia apparatus EM-A (trademark) to keep the anesthesia still effective. The aortic pressure and the internal pressure of the left ventricle were determined with a micro-tip catheter pressure transducers, MPC-500, tradename of Miller, inserted at the femoral arteries. The renal blood […] was determined by exposing by laparotomy the renal artery to a probe of an electromagnetic blood flowmeter, MFV-2100, tradename of Nihon Kohden Corp. Results are caught with a polygraph system, RM-6000, tradename of Nihon Kohden Corp.
The specimen was dissolved in a 0.9% saline solution and administered at the brachial vein through a catheter inserted thereinto. When the administration was made at the duodenum, the duodenum was exposed by the median incision to a catheter inserted thereinto. Results are shown in terms of an increase in percent of the renal blood flow and a decrease in percent of the mean blood pressure when the test compound was administered.

T1 sequence (P18901 whole entry): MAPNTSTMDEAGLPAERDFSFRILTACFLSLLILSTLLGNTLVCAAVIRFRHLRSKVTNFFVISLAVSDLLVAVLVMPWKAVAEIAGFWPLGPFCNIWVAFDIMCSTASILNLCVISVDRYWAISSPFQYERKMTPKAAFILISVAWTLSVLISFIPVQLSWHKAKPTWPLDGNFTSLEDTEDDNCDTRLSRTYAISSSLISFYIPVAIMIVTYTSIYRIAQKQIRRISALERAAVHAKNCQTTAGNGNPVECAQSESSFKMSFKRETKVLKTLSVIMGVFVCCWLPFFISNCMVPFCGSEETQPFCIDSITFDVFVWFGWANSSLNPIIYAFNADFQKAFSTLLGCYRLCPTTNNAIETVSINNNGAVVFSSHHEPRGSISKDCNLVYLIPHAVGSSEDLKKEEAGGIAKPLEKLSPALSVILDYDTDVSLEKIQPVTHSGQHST
T2 sequence (P61169 whole entry): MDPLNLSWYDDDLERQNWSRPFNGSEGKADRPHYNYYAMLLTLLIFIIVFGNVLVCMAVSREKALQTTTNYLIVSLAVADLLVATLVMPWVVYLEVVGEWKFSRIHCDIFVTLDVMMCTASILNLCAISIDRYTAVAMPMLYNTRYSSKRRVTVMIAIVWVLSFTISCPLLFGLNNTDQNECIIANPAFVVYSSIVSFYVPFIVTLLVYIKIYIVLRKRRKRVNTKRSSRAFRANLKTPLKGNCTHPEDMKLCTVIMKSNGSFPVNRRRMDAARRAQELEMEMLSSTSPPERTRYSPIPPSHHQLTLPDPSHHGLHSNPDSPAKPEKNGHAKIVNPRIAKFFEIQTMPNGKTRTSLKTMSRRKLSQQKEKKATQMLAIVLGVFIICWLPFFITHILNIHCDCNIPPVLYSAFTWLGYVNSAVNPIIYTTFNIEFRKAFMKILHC

| SMILES | IC50 [1] [µM] | IC50 [2] [µM] | inhibition in vivo at 0.01 mg/kg (anesthetized dogs) [%] | inhibition in vivo at 0.003 mg/kg (anesthetized dogs) [%] | inhibition in vivo at 0.001 mg/kg (anesthetized dogs) [%] |
| --- | --- | --- | --- | --- | --- |
| Oc1ccc([C@@H]2CNC[C@H]2c2ccccc2Cl)cc1O (relative stereo) [Compound C, trans-3-(2-chlorophenyl)-4-(3,4-dihydroxyphenyl)pyrrolidine hydrobromide] | 0.6 | 7 | 21 | – | – |
| Oc1ccc([C@@H]2CNC[C@H]2Cc2c(O)cccc2O)cc1O (relative stereo) [Compound I, trans-3-(2,6-dihydroxyphenyl)methyl-4-(3,4-dihydroxyphenyl)pyrrolidine] | 0.2 | 0.07 | – | 29 | – |
| Oc1ccc([C@@H]2CNC[C@H]2c2ccccc2)cc1O (relative stereo) [Compound A, trans-3-(3,4-dihydroxyphenyl)-4-phenylpyrrolidine hydrobromide] | 4.8 | 88 | – | – | – |
| Cc1ccccc1[C@@H]1CNC[C@H]1c1ccc(O)c(O)c1 (relative stereo) [Compound B, trans-3-(3,4-dihydroxyphenyl)-4-(2-methylphenyl)pyrrolidine hydrobromide] | 0.6 | 10 | 23 | – | – |
| Oc1ccc([C@@H]2CNC[C@H]2Cc2c(O)ccc(Cl)c2O)cc1O (relative stereo) [Compound J, trans-3-(3-chloro-2,6-dihydroxyphenyl)-methyl-4-(3,4-dihydroxyphenyl)-pyrrolidine] | 0.13 | 1 | – | – | 22 |
| Oc1ccc([C@@H]2CNC[C@H]2c2cccc(O)c2Cl)cc1O (relative stereo) [Compound D, trans-3-(2-chloro-3-hydroxyphenyl)-4-(3,4-dihydroxyphenyl)pyrrolidine hydrobromide] | 0.38 | 5.3 | – | 15 | – |
| Cc1ccsc1[C@@H]1CNC[C@H]1c1ccc(O)c(O)c1 (relative stereo) [Compound E, trans-3-(3,4-dihydroxyphenyl)-4-(3-methylthienyl)pyrrolidine hydrobromide] | 0.17 | 90 | 15 | – | – |
| Oc1ccc([C@@H]2CNC[C@H]2Cc2cc(F)cc(F)c2O)cc1O (relative stereo) [Compound K, trans-3-(3,5-difluoro-2-hydroxyphenyl)-methyl-4-(3,4-dihydroxyphenyl)-pyrrolidine] | 0.13 | 2 | – | – | 17 |
| Oc1ccc([C@@H]2CNC[C@H]2c2cccc3ccsc23)cc1O (relative stereo) [Compound G, trans-3-(7-benzothiophenyl)-4-(3,4-dihydroxyphenyl)pyrrolidine hydrobromide] | 0.4 | 6 | – | – | – |
| Oc1ccc([C@@H]2CNC[C@H]2Cc2cccc(F)c2O)cc1O (relative stereo) [Compound L, trans-3-(3-fluoro-2-hydroxyphenyl)methyl-4-(3,4-dihydroxyphenyl)pyrrolidine] | 0.2 | 5 | – | 21 | – |
| Oc1ccc([C@@H]2CNC[C@H]2Cc2cc(Cl)ccc2O)cc1O (relative stereo) [Compound H, trans-3-(3-chloro-6-hydroxyphenyl)-methyl-4-(3,4-dihydroxyphenyl)-pyrrolidine] | 0.3 | 0.3 | – | 15 | – |
| Cc1ccsc1[C@H]1CNC[C@H]1c1ccc(O)c(O)c1 (relative stereo) [Compound F, cis-3-(3,4-dihydroxyphenyl)-4-(3-methylthienyl)pyrrolidine hydrobromide] | 9 | 50 | – | – | – |
